PubChem BioAssay AID651799 (The Scripps Research Institute Molecular Screening Center, 2012)
The source made the active and inactive calls. No rule for the calls is given here.

Molecular target: Nuclear receptor coactivator 2 (Homo sapiens) (UniProt Q15596)
Assay: SRC2 (NCOA2) coactivator inhibitors, late-stage follow-up, selectivity assay for SRC1 inhibitor project, cell-based, luciferase reporter, luminescence (AID 651799)

Nuclear receptor coactivator 2 (Homo sapiens), sequence (Q15596 whole entry, looked up): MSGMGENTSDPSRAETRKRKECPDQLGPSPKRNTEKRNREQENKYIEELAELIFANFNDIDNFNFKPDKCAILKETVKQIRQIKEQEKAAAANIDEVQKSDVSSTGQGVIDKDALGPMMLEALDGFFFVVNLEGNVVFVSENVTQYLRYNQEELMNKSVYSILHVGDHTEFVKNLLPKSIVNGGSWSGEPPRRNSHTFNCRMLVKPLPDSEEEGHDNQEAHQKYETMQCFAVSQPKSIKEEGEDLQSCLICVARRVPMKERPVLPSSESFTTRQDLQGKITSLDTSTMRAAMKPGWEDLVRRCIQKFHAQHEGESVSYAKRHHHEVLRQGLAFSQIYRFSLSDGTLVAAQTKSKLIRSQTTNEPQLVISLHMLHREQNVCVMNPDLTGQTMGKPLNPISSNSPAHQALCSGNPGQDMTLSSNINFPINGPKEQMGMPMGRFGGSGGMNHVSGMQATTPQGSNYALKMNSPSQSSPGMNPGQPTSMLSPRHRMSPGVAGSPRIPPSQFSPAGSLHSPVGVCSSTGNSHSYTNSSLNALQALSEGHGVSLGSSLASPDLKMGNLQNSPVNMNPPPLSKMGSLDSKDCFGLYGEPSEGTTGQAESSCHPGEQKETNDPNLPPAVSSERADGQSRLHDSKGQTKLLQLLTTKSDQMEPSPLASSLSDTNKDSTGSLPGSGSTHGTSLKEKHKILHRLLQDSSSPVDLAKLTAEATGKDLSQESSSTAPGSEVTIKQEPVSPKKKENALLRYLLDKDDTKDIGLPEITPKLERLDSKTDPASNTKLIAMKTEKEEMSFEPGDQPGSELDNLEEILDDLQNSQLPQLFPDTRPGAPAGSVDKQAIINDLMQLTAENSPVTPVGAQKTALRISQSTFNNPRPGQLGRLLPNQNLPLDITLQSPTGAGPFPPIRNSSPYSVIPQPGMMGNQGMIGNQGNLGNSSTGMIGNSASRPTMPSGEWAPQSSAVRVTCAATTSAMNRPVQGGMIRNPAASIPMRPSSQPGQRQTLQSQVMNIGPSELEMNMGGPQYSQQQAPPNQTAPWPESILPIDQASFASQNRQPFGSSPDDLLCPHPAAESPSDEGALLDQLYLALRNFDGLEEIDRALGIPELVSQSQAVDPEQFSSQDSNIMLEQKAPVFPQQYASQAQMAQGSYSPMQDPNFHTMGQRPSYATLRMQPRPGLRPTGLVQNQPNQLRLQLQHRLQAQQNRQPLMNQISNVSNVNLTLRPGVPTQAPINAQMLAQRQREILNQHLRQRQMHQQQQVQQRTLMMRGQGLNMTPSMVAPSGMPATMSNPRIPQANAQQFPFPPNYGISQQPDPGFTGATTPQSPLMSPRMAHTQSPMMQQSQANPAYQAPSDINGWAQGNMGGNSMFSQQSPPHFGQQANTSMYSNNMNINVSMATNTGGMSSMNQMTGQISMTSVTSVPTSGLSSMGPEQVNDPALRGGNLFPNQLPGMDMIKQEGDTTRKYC

SMILES	IC50
COc1ccc(Nc2ncnc3ccc(Br)cc23)c(OC)c1	inactive
COc1ccc(NC(=O)CN(C)C(=O)C2(c3ccccc3)CCCC2)cc1	inactive
